The target of one assay is T1, 6His-3FLAG-Cdc14 (Saccharomyces cerevisiae, UniProt Q00684).
T1 sequence (Q00684 1-551): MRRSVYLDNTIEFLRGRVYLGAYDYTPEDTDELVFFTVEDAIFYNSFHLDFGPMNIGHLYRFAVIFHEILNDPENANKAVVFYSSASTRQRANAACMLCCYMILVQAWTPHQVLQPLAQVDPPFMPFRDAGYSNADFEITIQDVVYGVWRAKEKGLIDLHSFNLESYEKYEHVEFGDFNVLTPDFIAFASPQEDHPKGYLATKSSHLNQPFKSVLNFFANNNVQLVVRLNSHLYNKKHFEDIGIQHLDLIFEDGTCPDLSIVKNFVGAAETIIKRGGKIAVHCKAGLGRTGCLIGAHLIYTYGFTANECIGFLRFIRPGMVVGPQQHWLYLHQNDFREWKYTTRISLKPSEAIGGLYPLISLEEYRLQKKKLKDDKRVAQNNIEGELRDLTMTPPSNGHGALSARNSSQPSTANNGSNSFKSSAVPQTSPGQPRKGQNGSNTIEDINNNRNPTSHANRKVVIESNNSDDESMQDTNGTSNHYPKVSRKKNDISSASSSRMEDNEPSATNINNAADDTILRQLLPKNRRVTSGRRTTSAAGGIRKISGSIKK
In words: colorimetric p-nitrophenolate release, absorbance at […] nm. Format: biochemical. To be noted: 10 mM pNPP, 20 mM Tris pH 7.5, 4 mM MgCl2, 1 mM EGTA, room temperature.

Another assay concerns the target T2, 3HA-Atg13-p PxL2m (S. cerevisiae, UniProt Q06628 1-738, PxL2m (A207-IG), phosphorylated (Atg13-p); residues not stated).
T2 sequence (looked up): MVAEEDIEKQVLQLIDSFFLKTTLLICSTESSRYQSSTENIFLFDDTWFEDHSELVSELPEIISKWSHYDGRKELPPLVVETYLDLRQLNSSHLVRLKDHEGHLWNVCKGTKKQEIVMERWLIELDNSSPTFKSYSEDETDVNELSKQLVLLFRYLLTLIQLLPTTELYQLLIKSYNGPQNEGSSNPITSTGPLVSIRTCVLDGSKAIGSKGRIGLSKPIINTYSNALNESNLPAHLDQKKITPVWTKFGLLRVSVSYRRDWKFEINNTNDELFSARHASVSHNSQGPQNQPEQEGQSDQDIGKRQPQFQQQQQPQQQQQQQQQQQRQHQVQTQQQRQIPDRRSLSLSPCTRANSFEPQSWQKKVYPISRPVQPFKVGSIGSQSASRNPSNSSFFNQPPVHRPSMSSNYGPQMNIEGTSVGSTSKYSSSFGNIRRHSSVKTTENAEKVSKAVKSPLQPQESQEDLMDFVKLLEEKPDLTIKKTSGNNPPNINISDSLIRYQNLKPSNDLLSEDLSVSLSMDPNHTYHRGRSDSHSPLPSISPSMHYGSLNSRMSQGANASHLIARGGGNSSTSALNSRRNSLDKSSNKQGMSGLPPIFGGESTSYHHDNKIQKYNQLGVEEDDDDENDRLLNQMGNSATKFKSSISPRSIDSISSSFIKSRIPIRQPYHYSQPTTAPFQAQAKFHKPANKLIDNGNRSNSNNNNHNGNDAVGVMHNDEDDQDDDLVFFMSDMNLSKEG
In words: pull-down.

Where a chain is given by its changes, count along the chain named. Names and notes keep the numbering of the source.

Take `O=[N+]([O-])c1ccc(OP(=O)(O)O)cc1` [p-nitrophenyl phosphate]: the “colorimetric p-nitrophenolate release, absorbance at 405 nm” value at 6His-3FLAG-Cdc14 is 6His-3FLAG-Cdc14 exhibited concentration- and time-dependent phosphatase activity.

B1: 6His-3FLAG-Cdc14-C283S (enzyme, S. cerevisiae, UniProt Q00684 1-551, looked up)
chain: T1 sequence (Q00684 1-551) with C283S
Take B1: in the assay with 3HA-Atg13-p PxL2m, the binding result is reported as “binds”.

These data come from publication PMC8919667 (The Journal of Cell Biology, 2022).
